These are literature values, as cited in patent publication US20250051594A1, “INKJET INK” (KYOCERA DOCUMENT SOLUTIONS INC., priority 2023, published 2025).

The structures appear in SMILES notation. Like-named read-outs stand apart in the source and are kept apart here.

The conditions of the data set: octanol/water partition coefficient of the organic solvent.

As for `OCCOCCO` [Diethylene glycol], the LogKow was −1.47.
As to `CC(O)CO` (centres unmarked) [PG, propylene glycol], the LogKow is −0.92. The LogKow result (listed as propylene glycol) is on record as “higher than −1.00”.
`CCCCOCCOCC` [EBEE, ethylene glycol butylethylether]: the LogKow is listed as −1.88. Besides, the LogKow result (listed as ethylene glycolbutylethylether) is “lower than −1.80”.
For `COCCOCCOCCO` [Triethylene glycol monomethylether], the LogKow is given as −1.46.
Turning to `OCCCO` [1,3-propanediol], the LogKow is −1.04.
For `OCC(O)CO` [Glycerin], the LogKow is −1.76.
As for `CCCCOCC(C)O` (centres unmarked) [Propylene glycol monobutylether], the LogKow was −1.36.
Turning to `CCCOC(C)COC(C)CO` (centres unmarked) [Dipropylene glycol monopropylether], the LogKow was −1.53.
Regarding `OCCOCCOCCO` [Triethylene glycol], the LogKow is listed as −1.75.
`CCCCOCCOCCOC` [Diethylene glycolbutylmethylether]: the LogKow is given as −1.20.
With `COCCOCCO` [Diethylene glycol monomethylether], the LogKow is −1.18.
Turning to `COC(C)COC(C)COC(C)CO` (centres unmarked) [Tripropylene glycol monomethylether], the LogKow is given as −1.24.
